According to US20090054403A1, “Treatment of Post-Traumatic Stress Disorder” (priority 2007, published 2009):

How the values were obtained:
[1] = test system: tissue norepinephrine and dopamine levels; assay: Tissue catecholamines in beagle dogs, 10, 30, 60 mg/kg/day for 4.5 days; format: in vivo
Procedure: This study was performed to determine the dopamine and norepinephrine concentrations in kidney medulla and kidney cortex from dogs dosed with nepicastat. Adult male beagle dogs were randomly assigned to four groups of 8 dogs per group and dosed by oral administration with nepicastat. Nepicastat was delivered in doses of 5, 15 and 30 mg/kg placed in single capsules. Vehicle was an empty capsule. Each dog received 2 doses daily, morning and afternoon (8-10 hours apart) for four days. On the fifth day, each dog received a single dose in the morning and the dogs were euthanized six hours after the last dose. Samples of kidney medulla and kidney cortex were rapidly harvested, weighed, placed in cold 0.4 M perchloric acid, frozen in liquid nitrogen and stored at −70° C.
To quantitate concentrations of norepinephrine (NE) and dopamine (D), each tissue was homogenized by brief sonication in 0.4 M perchloric acid. After sonication, the homogenates were centrifuged at 13,000 rpm in a microfuge for 30 minutes at 4° C. An aliquot of each supernatant was removed and spiked with 3,4-dihydroxybenzylamine (DHBA) as internal standard. The extract from each sample was subjected to HPLC separation using electrochemical detection. The method has a quantitation limit of 2.0 ng/mL and a linear range of 2.0 ng/mL to 400 ng/mL for each analyte.
Nepicastat was weighed and put into capsules (size 13—Torpac; East Hanover, N.J.) to yield doses of 5, 15, and 30 mg/kg per capsule (given b.i.d. to yield doses of 10, 30 and 60 mg/kg/day). The initial dog weight was used to determine the dose for each animal. Dogs receiving 0 mg/kg/day received empty capsules (placebo). All doses of nepicastat were administered as free base equivalents.
Thirty-two male beagle dogs, weighing 10-12 kg, were randomly assigned to one of the following 4 treatment groups (n=8 per group): nepicastat at 0 mg/kg/day (placebo), 10 mg/kg/day (5 mg/kg b.i.d.), 30 mg/kg (15 mg/kg b.i.d.), or 60 mg/kg/day (30 mg/kg b.i.d.). Dog numbers 1-16 were assigned as dose group A and dog numbers 17-32 as dose group B. The terminal surgery for tissue harvest was performed over 2 days with 16 animals studied per day. Two or 3 days before the first compound administration each dog was weighed and skin regions overlying both cephalic, saphenous and jugular veins were shaved. Dosing consisted of oral administration of one capsule with the second given 8-10 hr later. Dogs were dosed as scheduled on days 1-3. On day 4, prior to the AM dose, 3 ml of blood were obtained from a jugular vein for determination of baseline plasma compound levels. The dog was then administered the AM dose, and at 1, 2, 4 and 8 hr following the dose additional 3 ml blood samples were collected for determination of plasma compound levels. Blood samples were put into tubes containing heparin, centrifuged at 4° C. and stored at −20° C. until analysis. The PM dose was then administered as scheduled. The AM dose was administered as scheduled on the days of surgery. Approximately 6 hr after the AM dose, a final 3 ml blood sample was taken from the jugular vein for determination of plasma compound levels. The dog was then anesthetized with pentobarbital Na (˜40 mg/kg), given iv in a cephalic or saphenous vein, and delivered to the necropsy room where an additional dose of pentobarbital Na was given (˜80 mg/kg, iv). The left ventricle, renal artery, kidney, renal medulla, renal cortex and cerebral cortex were then rapidly harvested, weighed, put into 2 ml iced 0.4M perchloric acid, frozen in liquid nitrogen and stored at −70° C. until analysis for catecholamines by HPLC using electrochemical detection. All tissue samples were divided into 2 portions, the second of which were immediately frozen in liquid nitrogen and stored at −70° C. for determination of tissue compound levels. A third transmural sample taken from the left ventricle was immediately frozen in liquid nitrogen and stored at −70° C. for use in receptor binding studies. […]

[2] = test system: sympathetically mediated pressor response; assay: Pressor response to pre-ganglionic nerve stimulation in pithed SHR; format: in vivo, spontaneously hypertensive rats (SHR)
Procedure: Hemodynamic study in SHR. Male SHR (15-16 week old) were used in the study. The animals were lightly anesthetized with ether and the left femoral artery and vein were catheterized for measurement of blood pressure and drug administration, respectively. The animals were placed in restrainers and allowed to recover for 30-40 min. […] The animals were then anesthetized with pentobarbital, placed on a heating pad (37° C.) and ventilated with a Harvard rodent ventilator. After administration of atropine (1 mg/kg, iv) and tubocurarine (1 mg/kg, iv), the animals were pithed through the orbit of the eye with a stainless steel rod. The […] rod was stimulated electrically with 1 ms pulses of 80V at different frequencies (0.15, 0.45, 1.5, 5, 15 Hz) to obtain frequency-pressor response curves.

[3] = 60 mg/kg/day, marginal (0.05<p<0.10)

Compound: Cl.NCc1c[nH]c(=S)n1[C@H]1CCc2c(F)cc(F)cc2C1 [nepicastat, (S)-5-Aminomethyl-1-(5,7-difluoro-1,2,3,4-tetrahydronaphth-2-yl)-2,3-dihydro-2-thioxo-1H-imidazole hydrochloride]
- decrease in norepinephrine, left ventricle ([1]; 10 mg/kg/day): 85%
- decrease in norepinephrine, renal artery ([1]; 10 mg/kg/day): 86%
- decrease in norepinephrine, renal cortex ([1]; 10 mg/kg/day): 86%
- decrease in norepinephrine, renal medulla ([1]; 10 mg/kg/day): 72%
- increase in dopamine, cerebral cortex ([1]; 10 mg/kg/day): 632%
- increase in dopamine, renal artery ([1]; 10 mg/kg/day): 180%
- increase in dopamine, renal cortex ([1]; 10 mg/kg/day): 156%
- increase in dopamine/norepinephrine ratio, cerebral cortex ([1]; 10 mg/kg/day): 531%
- increase in dopamine/norepinephrine ratio, left ventricle ([1]; 10 mg/kg/day): 852%
- increase in dopamine/norepinephrine ratio, renal artery ([1]; 10 mg/kg/day): 1711%
- increase in dopamine/norepinephrine ratio, renal cortex ([1]; 10 mg/kg/day): 1653%
- increase in dopamine/norepinephrine ratio, renal medulla ([1]; 10 mg/kg/day): 555%
- increase in dopamine, renal medulla ([1]; 10 mg/kg/day, marginal (0.05<p<0.10)): 150%
- decrease in norepinephrine, left ventricle ([1]; 30 mg/kg/day): 58%
- decrease in norepinephrine, renal artery ([1]; 30 mg/kg/day): 81%
- decrease in norepinephrine, renal cortex ([1]; 30 mg/kg/day): 66%
- increase in dopamine, renal artery ([1]; 30 mg/kg/day): 273%
- increase in dopamine, renal cortex ([1]; 30 mg/kg/day): 502%
- increase in dopamine, renal medulla ([1]; 30 mg/kg/day): 522%
- increase in dopamine/norepinephrine ratio, cerebral cortex ([1]; 30 mg/kg/day): 86%
- increase in dopamine/norepinephrine ratio, left ventricle ([1]; 30 mg/kg/day): 279%
- increase in dopamine/norepinephrine ratio, renal artery ([1]; 30 mg/kg/day): 1767%
- increase in dopamine/norepinephrine ratio, renal cortex ([1]; 30 mg/kg/day): 1440%
- increase in dopamine/norepinephrine ratio, renal medulla ([1]; 30 mg/kg/day): 636%
- reduction in norepinephrine, cerebral cortex ([1]; 30 mg/kg/day): 63%
- increase in dopamine, cerebral cortex ([1]; 30 mg/kg/day, marginal (0.05<p<0.10)): 174%
- decrease in norepinephrine, left ventricle ([1]; 60 mg/kg/day): 79%
- decrease in norepinephrine, renal artery ([1]; 60 mg/kg/day): 85%
- decrease in norepinephrine, renal cortex ([1]; 60 mg/kg/day): 85%
- increase in dopamine, cerebral cortex ([1]; 60 mg/kg/day): 411%
- increase in dopamine, renal artery ([1]; 60 mg/kg/day): 268%
- increase in dopamine, renal cortex ([1]; 60 mg/kg/day): 208%
- increase in dopamine/norepinephrine ratio, cerebral cortex ([1]; 60 mg/kg/day): 612%
- increase in dopamine/norepinephrine ratio, left ventricle ([1]; 60 mg/kg/day): 607%
- increase in dopamine/norepinephrine ratio, renal artery ([1]; 60 mg/kg/day): 1944%
- increase in dopamine/norepinephrine ratio, renal cortex ([1]; 60 mg/kg/day): 1693%
- increase in dopamine/norepinephrine ratio, renal medulla ([1]; 60 mg/kg/day): 677%
- decrease in norepinephrine, renal medulla [1, 3]: 69%
- increase in dopamine, renal medulla [1, 3]: 156%
- dopamine levels, left ventricle ([1]; 10, 30 and 60 mg/kg/day): No significant changes
- norepinephrine levels, cerebral cortex ([1]; 10 and 60 mg/kg/day): not significantly (p>0.01) affected
- responses to preganglionic nerve stimulation ([2]; 3 mg/kg p.o., 5 hours after dosing): significantly attenuated the hypertensive and tachycardic responses
- maximum shift of the frequency-pressor response curve ([2]; 5 h after oral dosing): 5 fold
